Measured values published in patent US11780845B2 (Relay Therapeutics, Inc., priority 2019, dated 2023).
pIC50: −log10 of the molar value.

Tested on: SNU16 cells
Experiment: SNU16 Cancer Cell Line Proliferation Assay
Format: cell-based
Settings: Homo sapiens; SNU-16 cells
Experimental: Compounds of the present invention were also tested in a SNU16 Cancer Cell Line Proliferation Assay, Test compounds were prepared in a 10 mM DMSO stock solution. 45 uL of stock solution was transferred to a 384 well plate, and a 3-fold 11-point dolution was performed. SNU16 cells in a 384 well cell culture plate were seeded and incubated at 37 degrees for 24 hours. 40 nL of each concentration of compound was transferred from the compound plate to a corresponding well in the cell culture plate by Echo550 liquid handler. The plates were incubated for 96 hours, then equilibrated to room temperature for 15 minutes. 20 uL of CellTiter Glo reagent is added into each well, then the plate was shaken gently for 30 minutes at room temperature. Chemiluminescence was then read on an EnVision reader.

| pIC50 | Compound |
| --- | --- |
| ≥ 7.00 | C=C(C)C(=O)Nc1ccc(-c2c(-c3ccc(Oc4nccc(C#N)n4)c(F)c3)c3c(N)ncnc3n2C)cc1 [Example 503] |
| 6.00 to 6.60 | C=C(C)C(=O)Nc1ccc(-c2c(-c3ccc(C(=O)N4CC5COCC5C4)cc3)c3c(N)ncnc3n2C)cc1 (centres unmarked) [Example 249] |
| 6.00 to 6.60 | C=C(C)C(=O)Nc1ccc(-c2c(-c3ccc(Cn4ccc(C)n4)cc3)c3c(N)ncnc3n2C)cc1 [Example 274] |
| 6.60 to 7.00 | C=C(C)C(=O)Nc1ccc(-c2c(-c3ccc(C(=O)NC4CCCC4O)cc3)c3c(N)ncnc3n2C)cc1 (centres unmarked) [Example 308] |
| ≥ 7.00 | C=C(C)C(=O)Nc1ccc(-c2c(-c3ccc(Oc4nccc(C)n4)c(C#N)c3)c3c(N)ncnc3n2C)cc1 [Example 508] |
| 6.60 to 7.00 | C=C(C)C(=O)Nc1ccc(-c2c(-c3ccc(C(=O)N4CC(C)C4)cc3)c3c(N)ncnc3n2C)cc1 [Example 135] |
| ≥ 7.00 | C=C(C)C(=O)Nc1ccc(-c2c(-c3ccc(S(=O)(=O)C4CCCC4)cc3)c3c(N)ncnc3n2C)cc1 [Example 150] |
| ≥ 7.00 | CC#CC(=O)Nc1ccc(-c2c(-c3ccc(C(=O)N4CCCC4)cc3)c3c(N)ncnc3n2C)cc1 [Example 155] |
| 6.00 to 6.60 | C=C(C)C(=O)Nc1ccc(-c2c(-c3ccc(C(=O)N(C)Cc4nc(C)no4)cc3)c3c(N)ncnc3n2C)cc1 [Example 270] |
| 6.00 to 6.60 | C=C(C)C(=O)Nc1c(F)cc(-c2c(-c3ccc(C(=O)N4CCCC4)cc3)c3c(N)ncnc3n2C)cc1F [Example 210] |
| 6.00 to 6.60 | C=C(C)C(=O)Nc1ccc(-c2c(-c3ccc(NC(C)=O)c(OC)c3)c3c(N)ncnc3n2C)cc1 [Example 86] |
| 6.00 to 6.60 | C=C(C)C(=O)Nc1ccc(-c2c(-c3ccc(C(=O)N4CCC(C)CC4)cc3)c3c(N)ncnc3n2C)cc1 [Example 190] |
| 6.00 to 6.60 | C=C(C)C(=O)Nc1ccc(-c2c(C3CCN(C(=O)N4CCCC4)CC3)c3c(N)ncnc3n2C)cc1 [Example 197] |

The next lines start with the compound.

| Compound | pIC50 |
| --- | --- |
| C=CC(=O)N1CCC(c2c(-c3ccc(Oc4ccc(C(F)(F)F)cn4)cc3)c3c(N)ncnc3n2C)C1 (centres unmarked) [Example 759] | 6.00 to 6.60 |
| C=Cc1ncc2cc(-c3c(-c4ccc(C(=O)N5CCCC5)cc4)c4c(N)ncnc4n3C)ccc2n1 [Example 573] | 6.00 to 6.60 |
| C=CC(=O)N1CC[C@@H](c2c(-c3ccc(Oc4cccc(C)n4)cc3)c3c(N)ncnc3n2C)C1 (single isomer, unassigned) [Example 711] | ≥ 7.00 |
| C=C(C)C(=O)N1CC=C(c2c(-c3ccc(Oc4ncccn4)cc3)c3c(N)ncnc3n2C)C1 [Example 688] | 4.00 to 6.00 |
| C=CC(=O)N1CC[C@@H](c2[nH]c3ncnc(N)c3c2-c2ccc(Oc3ncccn3)cc2)C1 [Example 713] | ≥ 7.00 |
| C=CC(=O)N1CC=C(c2c(-c3ccc(Oc4cc(C)ccn4)c(OC)c3)c3c(N)ncnc3n2C)CC1 [Example 677] | ≥ 7.00 |
| C=C(C)C(=O)Nc1ccc(-c2c(-c3cc(F)c(Oc4nccc(C)n4)cc3F)c3c(N)ncnc3n2C)cc1 [Example 546] | ≥ 7.00 |
| C=CC(=O)N1CC=C(c2c(-c3ccc(Oc4cccc(C)n4)c(OC)c3)c3c(N)ncnc3n2C)CC1 [Example 620] | ≥ 7.00 |
| C=CC(=O)Nc1ccc(-c2c(-c3ccc(C(=O)N4CCCC4)cc3)c3c(N)ncnc3n2C)cc1C [Example 220] | ≥ 7.00 |
| C=CC(=O)N1CCC(c2c(C3=CCC(CO)CC3)c3c(N)ncnc3n2C)C1 (centres unmarked) [Example 781] | 4.00 to 6.00 |
| C=C(C)C(=O)N1CCC(n2cc(-c3c(-c4ccc(OC)cc4)c4c(N)ncnc4n3C)cn2)CC1 [Example 653] | 4.00 to 6.00 |
| C=CC(=O)N1CCC(c2c(-c3ccc(N4CCCC4)cc3)c3c(N)ncnc3n2C)C1 (centres unmarked) [Example 719] | ≥ 7.00 |
| C=CC(=O)N1CCC(c2c(-c3ccc(CN4CCCC4)cc3)c3c(N)ncnc3n2C)C1 (centres unmarked) [Example 763] | 6.00 to 6.60 |
| C=C(C)C(=O)Nc1ccc(-c2c(-c3ccc(Oc4nccc(C)n4)c(F)c3)c3c(N)ncnc3n2C)c(OC)c1 [Example 502] | ≥ 7.00 |
| C=CC(=O)N1CCC(c2c(-c3ccc(OCc4ccccc4)cc3)c3c(N)ncnc3n2C)C1 (centres unmarked) [Example 748] | 6.00 to 6.60 |

Biological target: FGFR2 (Homo sapiens (Human), UniProt P21802)
Sequence (P21802 22-821): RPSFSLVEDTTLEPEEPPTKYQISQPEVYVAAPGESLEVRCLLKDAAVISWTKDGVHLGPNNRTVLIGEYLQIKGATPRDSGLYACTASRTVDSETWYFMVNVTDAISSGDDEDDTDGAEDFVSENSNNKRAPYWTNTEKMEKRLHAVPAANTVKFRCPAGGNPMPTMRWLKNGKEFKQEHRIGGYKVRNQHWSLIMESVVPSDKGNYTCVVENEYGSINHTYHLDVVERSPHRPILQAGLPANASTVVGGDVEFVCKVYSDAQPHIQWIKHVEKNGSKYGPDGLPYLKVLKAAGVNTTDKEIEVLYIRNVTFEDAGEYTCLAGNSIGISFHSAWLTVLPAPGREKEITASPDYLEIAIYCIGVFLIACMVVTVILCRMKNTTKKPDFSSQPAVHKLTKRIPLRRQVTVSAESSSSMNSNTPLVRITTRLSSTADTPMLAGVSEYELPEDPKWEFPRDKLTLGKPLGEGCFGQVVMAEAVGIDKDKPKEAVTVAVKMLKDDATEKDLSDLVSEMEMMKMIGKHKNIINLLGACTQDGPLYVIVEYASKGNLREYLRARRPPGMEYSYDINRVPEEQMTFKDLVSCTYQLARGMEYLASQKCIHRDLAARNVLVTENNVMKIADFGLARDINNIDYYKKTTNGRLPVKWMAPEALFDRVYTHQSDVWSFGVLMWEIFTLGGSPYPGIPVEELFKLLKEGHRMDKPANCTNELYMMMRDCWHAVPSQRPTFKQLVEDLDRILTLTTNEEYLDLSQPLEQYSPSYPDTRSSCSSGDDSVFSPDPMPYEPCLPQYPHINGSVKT
Experiment: FGFR2 Biochemical Caliper Assay
Settings: not given
Experimental: Compounds of the present invention were also tested in a FGFR2 Biochemical Caliper Assay. Compounds were prepared in 10 mM DMSO solution and serially diluted into 11 concentrations by 3-fold dilution. […] 5 uL of ATP solution (100 uM) was added to start the reaction and the plate was incubated for 90 minutes, then 70 uL of stopping buffer (0.5M EDTA) was added to terminate the reaction. Each well was analyzed using EZ reader.

| pIC50 | Compound |
| --- | --- |
| > 7.00 | C=C(C)C(=O)Nc1ccc(-c2c(-c3ccc(Oc4nccc(C#N)n4)c(F)c3)c3c(N)ncnc3n2C)cc1 [Example 503] |
| 6.00 to 6.60 | C=C(C)C(=O)Nc1ccc(-c2c(-c3ccc(C(=O)N4CC5COCC5C4)cc3)c3c(N)ncnc3n2C)cc1 (centres unmarked) [Example 249] |
| 6.60 to 7.00 | C=C(C)C(=O)Nc1ccc(-c2c(-c3ccc(Cn4ccc(C)n4)cc3)c3c(N)ncnc3n2C)cc1 [Example 274] |
| > 7.00 | C=C(C)C(=O)Nc1ccc(-c2c(-c3ccc(C(=O)NC4CCCC4O)cc3)c3c(N)ncnc3n2C)cc1 (centres unmarked) [Example 308] |
| > 7.00 | C=C(C)C(=O)Nc1ccc(-c2c(-c3ccc(Oc4nccc(C)n4)c(C#N)c3)c3c(N)ncnc3n2C)cc1 [Example 508] |
| 6.00 to 6.60 | C=C(C)C(=O)Nc1ccc(-c2c(-c3ccc(C(=O)N4CC(C)C4)cc3)c3c(N)ncnc3n2C)cc1 [Example 135] |
| > 7.00 | C=C(C)C(=O)Nc1ccc(-c2c(-c3ccc(S(=O)(=O)C4CCCC4)cc3)c3c(N)ncnc3n2C)cc1 [Example 150] |
| > 7.00 | CC#CC(=O)Nc1ccc(-c2c(-c3ccc(C(=O)N4CCCC4)cc3)c3c(N)ncnc3n2C)cc1 [Example 155] |
| 6.00 to 6.60 | C=C(C)C(=O)Nc1ccc(-c2c(-c3ccc(C(=O)N(C)Cc4nc(C)no4)cc3)c3c(N)ncnc3n2C)cc1 [Example 270] |
| 4.00 to 6.00 | C=C(C)C(=O)Nc1c(F)cc(-c2c(-c3ccc(C(=O)N4CCCC4)cc3)c3c(N)ncnc3n2C)cc1F [Example 210] |
| 4.00 to 6.00 | C=C(C)C(=O)Nc1ccc(-c2c(-c3ccc(NC(C)=O)c(OC)c3)c3c(N)ncnc3n2C)cc1 [Example 86] |
| 4.00 to 6.00 | C=C(C)C(=O)Nc1ccc(-c2c(-c3ccc(C(=O)N4CCC(C)CC4)cc3)c3c(N)ncnc3n2C)cc1 [Example 190] |
| 4.00 to 6.00 | C=C(C)C(=O)Nc1ccc(-c2c(C3CCN(C(=O)N4CCCC4)CC3)c3c(N)ncnc3n2C)cc1 [Example 197] |

Further lines, the compound ahead of its results:

| Compound | pIC50 |
| --- | --- |
| C=CC(=O)N1CCC(c2c(-c3ccc(Oc4ccc(C(F)(F)F)cn4)cc3)c3c(N)ncnc3n2C)C1 (centres unmarked) [Example 759] | 6.00 to 6.60 |
| C=Cc1ncc2cc(-c3c(-c4ccc(C(=O)N5CCCC5)cc4)c4c(N)ncnc4n3C)ccc2n1 [Example 573] | 4.00 to 6.00 |
| C=CC(=O)N1CC[C@@H](c2c(-c3ccc(Oc4cccc(C)n4)cc3)c3c(N)ncnc3n2C)C1 (single isomer, unassigned) [Example 711] | > 7.00 |
| C=C(C)C(=O)N1CC=C(c2c(-c3ccc(Oc4ncccn4)cc3)c3c(N)ncnc3n2C)C1 [Example 688] | 4.00 to 6.00 |
| C=CC(=O)N1CC[C@@H](c2[nH]c3ncnc(N)c3c2-c2ccc(Oc3ncccn3)cc2)C1 [Example 713] | > 7.00 |
| C=CC(=O)N1CC=C(c2c(-c3ccc(Oc4cc(C)ccn4)c(OC)c3)c3c(N)ncnc3n2C)CC1 [Example 677] | > 7.00 |
| C=C(C)C(=O)Nc1ccc(-c2c(-c3cc(F)c(Oc4nccc(C)n4)cc3F)c3c(N)ncnc3n2C)cc1 [Example 546] | > 7.00 |
| C=CC(=O)N1CC=C(c2c(-c3ccc(Oc4cccc(C)n4)c(OC)c3)c3c(N)ncnc3n2C)CC1 [Example 620] | > 7.00 |
| C=CC(=O)Nc1ccc(-c2c(-c3ccc(C(=O)N4CCCC4)cc3)c3c(N)ncnc3n2C)cc1C [Example 220] | > 7.00 |
| C=CC(=O)N1CCC(c2c(C3=CCC(CO)CC3)c3c(N)ncnc3n2C)C1 (centres unmarked) [Example 781] | 4.00 to 6.00 |
| C=C(C)C(=O)N1CCC(n2cc(-c3c(-c4ccc(OC)cc4)c4c(N)ncnc4n3C)cn2)CC1 [Example 653] | 6.00 to 6.60 |
| C=CC(=O)N1CCC(c2c(-c3ccc(N4CCCC4)cc3)c3c(N)ncnc3n2C)C1 (centres unmarked) [Example 719] | > 7.00 |
| C=CC(=O)N1CCC(c2c(-c3ccc(CN4CCCC4)cc3)c3c(N)ncnc3n2C)C1 (centres unmarked) [Example 763] | 6.00 to 6.60 |
| C=C(C)C(=O)Nc1ccc(-c2c(-c3ccc(Oc4nccc(C)n4)c(F)c3)c3c(N)ncnc3n2C)c(OC)c1 [Example 502] | > 7.00 |
| C=CC(=O)N1CCC(c2c(-c3ccc(OCc4ccccc4)cc3)c3c(N)ncnc3n2C)C1 (centres unmarked) [Example 748] | 6.60 to 7.00 |
